“Also recorded” adds a separate entry of the source. Where a SMILES comes first, the peptide text is derived from it. [ ]: non-standard residue; d: D form. dPhe(4-Cl) = N[C@H](Cc1ccc(Cl)cc1)C(=O)O; d2Nal = N[C@H](Cc1ccc2ccccc2c1)C(=O)O; dCit = NC(=O)NCCC[C@@H](N)C(=O)O; d3Pal = N[C@H](Cc1cccnc1)C(=O)O
How the values were obtained:
[1] = system: pituitary / follicular growth; test: Animal experiments and clinical studies with Cetrorelix (unstimulated follicular growth, pituitary responsiveness); assay type: in vivo
Source text: These low dosage levels present new possibilities for manipulating the time of ovulation during a normal, not exogenous gonadotropin-stimulated cycle, without affecting the viability of the growing follicle. In case of inadequate follicular growth related to treatment with LHRH-antagonists, low dose and short term administration of gonadotrophin or other trophic compounds will compensate for these effects. Subsequently, by stopping the LHRH-antagonist treatment, it is possible to let the normal ovulation occur or to induce ovulation by exogenous manipulation, if necessary. Ovulation induction was induced by the administration of standard HCG or by administration of LHRH and/or LHRH agonistic analogs. These described treatment alternatives are a departure from existing protocols, since they are possible only if preceded by treatment for LH-surge-control with an LHRH-antagonist. In animal and clinical studies with Cetrorelix it was shown that the responsiveness of the pituitary to LHRH or agonistic analogs is preserved under these conditions of treatment. Without this treatment, the pituitary cannot respond after agonistic pretreatment for LH-surge control due to receptor down-regulation. In addition, the possible use of ovulation inducing agents other than HCG results in a-reduced incidence of ovarian hyperstimulation syndrome.

premature LH surges = settings: short term treatment; cited from earlier work
[2] = system: patients undergoing COS/ART; test: Phase II clinical trial of Cetrorelix in controlled ovarian stimulation (COS/ART); assay type: in vivo
Method: The results of a phase II clinical trial are shown in Table I. A total of […] patients were treated. […] During multiple dosing, the mean days of Cetrorelix application is 6 days. 25 babies were born by the end of May 1996 (7 following multiple doses; 18 following single/dual doses). 238 patients were treated with Cetrorelix by subcutaneous injection of Cetrorelix […]-Lyophilisat. 134 patients were treated with multiple doses and 104 patients with single or dual doses. The multiple doses are 0.25 mg/day or higher. The single dose was 3 mg or higher. […]

[3] = system: patients undergoing COH for IVF/ICSI; test: Cetrorelix combined with clomifen citrate and gonadotrophins for hormonal stimulation (COH) for IVF/ICSI; assay type: in vivo; settings: for fertilization rate: ICSI
Method: Combination of the GnRH antagonist Cetrorelix, clomifen citrate(CC) and gonadotrophins for hormonal stimulation for IVF/ICSI. COH was started on day 2 after spontaneous menstrual bleeding using 100 mg CC per day for 5 or 7 days. The antagonist Cetrorelix (0.25 mg s.c.) was given starting on stimulation day 6 combined with either urinary hMG or recombinant FSH (3 ampoules/d) in a prospective randomized way. After two days of gonadotrophin injection, the dose was individualized. Human chorionic gonadotropin was given for ovulation induction, if at least 3 follicles were ≧17 mm in diameter. In total, 30 patients were included in the study. 15 were randomized in each group. Intra cytoplasmatic sperm injection (ICSI) was applied in each case.

[4] = all phase II patients, both regimens
[5] = multiple dosing, 3-7/14 days, phase II dose finding
[6] = single dose (1 day), phase II dose finding

CC(=O)N[C@H](Cc1ccc2ccccc2c1)C(=O)N[C@H](Cc1ccc(Cl)cc1)C(=O)N[C@H](Cc1cccnc1)C(=O)N[C@@H](CO)C(=O)N[C@@H](Cc1ccc(O)cc1)C(=O)N[C@H](CCCNC(N)=O)C(=O)N[C@@H](CC(C)C)C(=O)N[C@@H](CCCNC(=N)N)C(=O)N1CCC[C@H]1C(=O)N[C@H](C)C(N)=O [Cetrorelix] (Ac-[d2Nal][dPhe(4-Cl)][d3Pal]SY[dCit]LRP[dA]-NH2)
effect on normal, unstimulated follicular growth ([1]; multiple or single injections, extremely low dosage levels): arrest of the normal, unstimulated follicular growth | responsiveness of the pituitary to LHRH or agonistic analogs ([1]; under treatment for LH-surge control): preserved | premature LH surges during stimulated cycles (premature LH surges): complete avoidance of premature LH surges | FSH secretion ([2]; FIG. 1): maintained at a natural level | individual estrogen development ([2]; FIG. 1): not affected | pregnancies obtained [2, 4]: 71 | pregnancy rate [2, 4]: 30% | babies born by the end of May 1996 ([2]; both regimens together): 25 | babies born by the end of May 1996 ([2]; following multiple doses): 7 | babies born by the end of May 1996 ([2]; following single/dual doses): 18 | pregnancy rate ([2]; multiple dose regimen): 28.4% | pregnancies ([2]; multiple dose regimen, of 134 patients): 38 | premature LH surge ([2]; multiple doses of 0.25 mg or higher or single dose of 3 mg or higher, s.c.): No premature LH surge; also recorded: absolute prevention of any premature LH surge | min. effective dose (Dose/Day) [2, 5]: 0.25 min. effect, dose mg | no effect dose (Dose/Day) [2, 5]: 0.10 no effect. dose mg | min. effective dose [2, 6]: 3 min. effective dose mg | no effect dose [2, 6]: 2 no effect. Dose mg | duration of effect to prevent a premature LH surge ([2]; single dose regimen): up to 6.5 days | pregnancy rate ([2]; single/dual dosage regimen): 31.7% | pregnancies ([2]; single/dual dosage regimen, of 104 patients): 33 | ovarian hyperstimulation syndrome (OHSS) ([3]; both groups, 30 patients): No case | oocytes retrieved per cycle ([3]; hMG group): 7.7±3.8 | fertilization rate ([3]; hMG group): 42% | oocytes retrieved per cycle ([3]; recombinant FSH group): 6.4±2.6 | fertilization rate ([3]; recombinant FSH group): 53%
